According to PubChem BioAssay AID2060910 (Molecular Pharmacology Branch, DTP, NCI, 2025):
One block for each compound: values may come before it.

Tested on: 242566-281-R-J2-PDC complex spheroid viability
Assay: Anticancer human tumor 242566-281-R-J2-PDC patient-derived pancreatic carcinoma cell line growth inhibition [RAS]
Details: for IC50: curve of first compound; for viability, T/C: stronger effect = lower value
Outline: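 Multi-cell-type spheroids: tumor cells plus HUVEC endothelial cells and mesenchymal stem cells. RAS-pathway inhibitors were combined with targeted agents, each dosed in half-log steps down from clinical Cmax, or from 10 microM when Cmax was unknown.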

[1] = second compound 0.000949 µM, first compound 0.0316 µM
[2] = second compound 0.000949 µM, first compound 0.1 µM
[3] = second compound 0.000949 µM, first compound 0.316 µM
[4] = second compound 0.000949 µM, first compound 1 µM
[5] = second compound 0.003 µM, first compound 0.0316 µM
[6] = second compound 0.003 µM, first compound 0.1 µM
[7] = second compound 0.003 µM, first compound 0.316 µM
[8] = second compound 0.003 µM, first compound 1 µM
[9] = second compound 0.00949 µM, first compound 0.0316 µM
[10] = second compound 0.00949 µM, first compound 0.1 µM
[11] = second compound 0.00949 µM, first compound 0.316 µM
[12] = second compound 0.00949 µM, first compound 1 µM
[13] = second compound 0.03 µM, first compound 0.0316 µM
[14] = second compound 0.03 µM, first compound 0.1 µM
[15] = second compound 0.03 µM, first compound 0.316 µM
[16] = second compound 0.03 µM, first compound 1 µM
[17] = second compound 0.0949 µM, first compound 0.0316 µM
[18] = second compound 0.0949 µM, first compound 0.1 µM
[19] = second compound 0.0949 µM, first compound 0.316 µM
[20] = second compound 0.0949 µM, first compound 1 µM
[21] = second compound 0.3 µM, first compound 0.0316 µM
[22] = second compound 0.3 µM, first compound 0.1 µM
[23] = second compound 0.3 µM, first compound 0.316 µM
[24] = second compound 0.3 µM, first compound 1 µM
[25] = second compound 0.000949 µM, first compound 3.16 µM
[26] = second compound 0.000949 µM, first compound 10 µM
[27] = second compound 0.003 µM, first compound 3.16 µM
[28] = second compound 0.003 µM, first compound 10 µM
[29] = second compound 0.00949 µM, first compound 3.16 µM
[30] = second compound 0.00949 µM, first compound 10 µM
[31] = second compound 0.03 µM, first compound 3.16 µM
[32] = second compound 0.03 µM, first compound 10 µM
[33] = second compound 0.0949 µM, first compound 3.16 µM
[34] = second compound 0.0949 µM, first compound 10 µM
[35] = second compound 0.3 µM, first compound 3.16 µM
[36] = second compound 0.3 µM, first compound 10 µM
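Further: spheroids exposed to compound for 7 days before readout.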
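Wherever viability, T/C is given: 100% = DMSO vehicle control wells.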

IC50 (second compound 0.000949 µM): > 1 µM | IC50 (second compound 0.003 µM): > 1 µM | IC50 (second compound 0.00949 µM): > 1 µM | IC50 (second compound 0.03 µM): > 1 µM | IC50 (second compound 0.0949 µM): > 1 µM | IC50 (second compound 0.3 µM): > 1 µM
Compound: CCN1CCN(Cc2ccc(Nc3ncc(F)c(-c4cc(F)c5nc(C)n(C(C)C)c5c4)n3)nc2)CC1 + CCn1c(-c2cccnc2C(C)OC)c2c3cc(ccc31)N1CCOC(CC(NC(=O)C(C(C)C)N(C)C(=O)C3(F)CCN(C(=O)C#CC(C)(C)N(C)C)CC3)C(=O)N3CCCC(N3)C(=O)OCC(C)(C)C2)C1
viability, T/C (second compound 0.000949 µM, first compound 0.00316 µM): 102% | viability, T/C (second compound 0.000949 µM, first compound 0.01 µM): 92.2% | viability, T/C [1]: 78.6% | viability, T/C [2]: 88.5% | viability, T/C [3]: 102% | viability, T/C [4]: 99.6% | viability, T/C (second compound 0.003 µM, first compound 0.00316 µM): 109% | viability, T/C (second compound 0.003 µM, first compound 0.01 µM): 93.5% | viability, T/C [5]: 81.5% | viability, T/C [6]: 88.2% | viability, T/C [7]: 103% | viability, T/C [8]: 94.7% | viability, T/C (second compound 0.00949 µM, first compound 0.00316 µM): 102% | viability, T/C (second compound 0.00949 µM, first compound 0.01 µM): 99.4% | viability, T/C [9]: 93.1% | viability, T/C [10]: 86.5% | viability, T/C [11]: 98.4% | viability, T/C [12]: 109% | viability, T/C (second compound 0.03 µM, first compound 0.00316 µM): 97.5% | viability, T/C (second compound 0.03 µM, first compound 0.01 µM): 94.7% | viability, T/C [13]: 85.8% | viability, T/C [14]: 97.2% | viability, T/C [15]: 88.2% | viability, T/C [16]: 117% | viability, T/C (second compound 0.0949 µM, first compound 0.00316 µM): 83.8% | viability, T/C (second compound 0.0949 µM, first compound 0.01 µM): 92.8% | viability, T/C [17]: 93.4% | viability, T/C [18]: 93.1% | viability, T/C [19]: 83.8% | viability, T/C [20]: 107% | viability, T/C (second compound 0.3 µM, first compound 0.00316 µM): 83.5% | viability, T/C (second compound 0.3 µM, first compound 0.01 µM): 79.2% | viability, T/C [21]: 79.5% | viability, T/C [22]: 77.7% | viability, T/C [23]: 93% | viability, T/C [24]: 116%

IC50 (second compound 0.000949 µM): > 10 µM | IC50 (second compound 0.003 µM): > 10 µM | IC50 (second compound 0.00949 µM): > 10 µM | IC50 (second compound 0.03 µM): > 10 µM | IC50 (second compound 0.0949 µM): > 10 µM | IC50 (second compound 0.3 µM): > 10 µM
Compound: C[C@@H](NC(=O)c1ncnc(N)c1Cl)c1ncc(C(=O)Nc2cc(C(F)(F)F)c(Cl)cn2)s1 + CCn1c(-c2cccnc2C(C)OC)c2c3cc(ccc31)N1CCOC(CC(NC(=O)C(C(C)C)N(C)C(=O)C3(F)CCN(C(=O)C#CC(C)(C)N(C)C)CC3)C(=O)N3CCCC(N3)C(=O)OCC(C)(C)C2)C1
viability, T/C [1]: 126% | viability, T/C [2]: 107% | viability, T/C [3]: 112% | viability, T/C [4]: 103% | viability, T/C [25]: 107% | viability, T/C [26]: 63.8% | viability, T/C [5]: 106% | viability, T/C [6]: 100% | viability, T/C [7]: 106% | viability, T/C [8]: 105% | viability, T/C [27]: 97.3% | viability, T/C [28]: 87.7% | viability, T/C [9]: 113% | viability, T/C [10]: 104% | viability, T/C [11]: 95.1% | viability, T/C [12]: 115% | viability, T/C [29]: 91.8% | viability, T/C [30]: 83.1% | viability, T/C [13]: 105% | viability, T/C [14]: 90.8% | viability, T/C [15]: 109% | viability, T/C [16]: 90.6% | viability, T/C [31]: 77.3% | viability, T/C [32]: 101% | viability, T/C [17]: 94.9% | viability, T/C [18]: 105% | viability, T/C [19]: 90.7% | viability, T/C [20]: 105% | viability, T/C [33]: 69.8% | viability, T/C [34]: 98.1% | viability, T/C [21]: 90.8% | viability, T/C [22]: 84.5% | viability, T/C [23]: 108% | viability, T/C [24]: 88.1% | viability, T/C [35]: 85.5% | viability, T/C [36]: 86.7%

IC50 (second compound 0.000949 µM): > 10 µM | IC50 (second compound 0.003 µM): > 10 µM | IC50 (second compound 0.00949 µM): > 10 µM | IC50 (second compound 0.03 µM): > 10 µM | IC50 (second compound 0.0949 µM): > 10 µM | IC50 (second compound 0.3 µM): > 10 µM
Compound: Cc1nc(N2CCC3(CC2)COC(C)C3N)c(CO)nc1Sc1ccnc(N)c1Cl (stereo unspecified) + CCn1c(-c2cccnc2C(C)OC)c2c3cc(ccc31)N1CCOC(CC(NC(=O)C(C(C)C)N(C)C(=O)C3(F)CCN(C(=O)C#CC(C)(C)N(C)C)CC3)C(=O)N3CCCC(N3)C(=O)OCC(C)(C)C2)C1
viability, T/C [1]: 94.9% | viability, T/C [2]: 93.2% | viability, T/C [3]: 63.1% | viability, T/C [4]: 77.4% | viability, T/C [25]: 71.5% | viability, T/C [26]: 53.4% | viability, T/C [5]: 102% | viability, T/C [6]: 80% | viability, T/C [7]: 80% | viability, T/C [8]: 81.5% | viability, T/C [27]: 74% | viability, T/C [28]: 52.8% | viability, T/C [9]: 98.8% | viability, T/C [10]: 73.4% | viability, T/C [11]: 67.3% | viability, T/C [12]: 71% | viability, T/C [29]: 67.1% | viability, T/C [30]: 68.6% | viability, T/C [13]: 97.6% | viability, T/C [14]: 85.5% | viability, T/C [15]: 82% | viability, T/C [16]: 73.7% | viability, T/C [31]: 60.7% | viability, T/C [32]: 61.6% | viability, T/C [17]: 75.1% | viability, T/C [18]: 77.3% | viability, T/C [19]: 79.7% | viability, T/C [20]: 71.1% | viability, T/C [33]: 54.3% | viability, T/C [34]: 61.9% | viability, T/C [21]: 73.7% | viability, T/C [22]: 72.8% | viability, T/C [23]: 61.5% | viability, T/C [24]: 50.5% | viability, T/C [35]: 49.9% | viability, T/C [36]: 51.5%
